# Reference: US11180657B2, “Polysulfonated fluorescence dyes” (ATTO-TEC GmbH, priority 2017, dated 2021)
# Marks after values point to notes of the source that are not given here.
# Tests used:
# Assay type in all cases: physicochemical
# [1] = Absorption maximum of the dye
# Text: (§1) Examples of the compounds according to the invention are listed in Tables 2-6, where the structures as well as the absorption and fluorescence maxima are indicated. The spectra of selected compounds are shown FIGS. 5-18.
# [2] = Fluorescence quencher property (dye itself not fluorescent)
# Text: A particular subgroup of the compounds according to the invention is fluorescence quenchers. These dyes are not fluorescent themselves, but can act as acceptors for the emission of fluorescent compounds. A widespread area of use of such quenchers is for instance the measurement of the geometry (distances, size, and arrangement of molecular groups) or the reactivity (enzyme activity, reaction speeds, etc.) using Förster resonance energy transfer (FRET). The fluorescence of the donor can only appear when the distance between donor and acceptor exceeds a critical value. Below this distance, the fluorescence of the donor is quenched by the acceptor (=quencher) which is not fluorescent by itself. An overview of the bioanalytical applications of the FRET technology is provided for example by A. Roda, M. Guardigli, E. Micheline, M. Mirasoli, Nanobioanalytical luminescence: Förster-type energy transfer methods, Anal. Bioanal. Chem. 393, 2009, 109-123.
# Examples of quenchers according to the invention are compounds 14, 15, 16 and 17. These rhodamines represent a further development of the dyes designated as “violamines” because of their magenta-colored solutions, see for example H. E. Fierz-David, Künstliche Organische Farbstoffe [Artificial Organic Dyes], Springer-Verlag, Berlin, 1926, p. 276ff. However, also the structure of other dye classes may be modified in this way. Examples according to the invention include compounds 49, 50 and 51 from the class of carbopyronines.
# [3] = Fluorescence maximum of the dye; conditions: solvent PBS pH 7.4
# Text: as §1
# [4] = Lactone or pseudobase formation in aqueous weakly alkaline solution; conditions: aqueous weakly alkaline solutions; reversible
# Text: Normally such lactones are adequately stabilized only in aprotic solvents such as acetone or chloroform. In protic solvents the carboxyl group is deprotonated and a slightly more short-wave absorbing and fluorescent zwitterion is formed. In the exemplary compounds, however, colorless compounds are formed due to the strong electron attraction of the indicated substituents, due to internal ester formation and the associated interruption of the conjugated system. If the carboxyl group is not free but is present as an ester or tertiary amide, so-called pseudobases are formed, through nucleophilic attack (hydroxide ions etc.) at the central carbon atom, which is stronger positivized by the electron-attracting substituents, which pseudobases are likewise colorless due to the interruption of the conjugated system. Both reactions are reversible; by changing the pH value, the dielectric constant (“polarity”) and/or the capability of hydrogen bridge bonding (“proticity”), the dye can be restored. Therefore such compounds can in principle be used as probes for the properties of their direct environment: Depending on the milieu, the molecules are present in colorless or colored form. Associated therewith is also a sort of fluorogenicity, because the longwave fluorescence appears only in the dye form.
SMILES,λabs ([1]; solvent PBS pH 7.4),"fluorescence quencher (not fluorescent itself, acceptor for emission of fluorescent compounds) [2]",λabs ([1]; solvent water/acetonitrile 1:1),λfl [3],formation of colorless lactone or pseudobase [4]
CC1=CC(C)(C)[N+](Cc2ccc(S(=O)(=O)O)cc2S(=O)(=O)O)=c2cc3c(cc21)=C(c1c(F)c(F)c(SCC(=O)O)c(F)c1F)c1ccc(Nc2ccc(S(=O)(=O)O)cc2)cc1C3(C)C [Compound 50],669^b nm,quenchers,,,
O=C(O)C1CCN(C(=O)c2ccccc2-c2c3cc(S(=O)(=O)O)/c(=N/Cc4ccc(S(=O)(=O)O)cc4S(=O)(=O)O)cc-3oc3cc(NCc4ccc(S(=O)(=O)O)cc4S(=O)(=O)O)c(S(=O)(=O)O)cc23)CC1 [Compound 11],,,529^c nm,550^b nm,easily form a lactone or pseudobase
O=C(O)c1ccccc1-c1c2cc(S(=O)(=O)O)/c(=N/c3ccc(S(=O)(=O)O)cc3)cc-2oc2cc(Nc3ccc(S(=O)(=O)O)cc3)c(S(=O)(=O)O)cc12 [Compound 15],,quenchers,558^c nm,,
CN(CCCC(=O)O)C(=O)c1ccccc1-c1c2cc(S(=O)(=O)O)/c(=N/c3ccc(S(=O)(=O)O)cc3)cc-2oc2cc(Nc3ccc(S(=O)(=O)O)cc3)c(S(=O)(=O)O)cc12 [Compound 16],,quenchers,566^c nm,,
CC1(C)c2cc(Nc3ccc(S(=O)(=O)O)cc3)ccc2C(c2c(F)c(F)c(SCC(=O)O)c(F)c2F)=c2cc3c(cc21)=[N+](Cc1ccc(S(=O)(=O)O)cc1S(=O)(=O)O)C(C)(C)CC3CS(=O)(=O)O (stereo not shown) [Compound 51],650^b nm,quenchers,,,
CC1(C)c2cc(Nc3ccc(S(=O)(=O)O)cc3)ccc2C(c2c(F)c(F)c(SCC(=O)O)c(F)c2F)=c2cc3c(cc21)=[N+](Cc1ccc(S(=O)(=O)O)cc1S(=O)(=O)O)CCC3 [Compound 49],648^b nm,quenchers,,,
O=C(O)C1CCCN1C(=O)c1ccccc1-c1c2cc(S(=O)(=O)O)/c(=N/Cc3ccc(S(=O)(=O)O)cc3S(=O)(=O)O)cc-2oc2cc(NCc3ccc(S(=O)(=O)O)cc3S(=O)(=O)O)c(S(=O)(=O)O)cc12 (stereo not shown) [Compound 10],,,534^c nm,556^b nm,easily form a lactone or pseudobase
CC1(C)c2cc3c(cc2C(c2c(F)c(F)c(SCCS(=O)(=O)O)c(F)c2F)=c2cc4c(cc21)=[N+](CCc1ccc(S(=O)(=O)O)cc1)C(C)(C)C=C4CS(=O)(=O)O)C(CS(=O)(=O)O)=CC(C)(C)N3CCCC(=O)O [Compound 45],698^b nm,,,719^b nm,
Cn1cc[n+](CCCC(=O)O)c1C1=c2cc3c(cc2[Si](C)(C)c2cc4c(cc21)C(CS(=O)(=O)O)=CC(C)(C)N4Cc1ccc(S(=O)(=O)O)cc1S(=O)(=O)O)=[N+](Cc1ccc(S(=O)(=O)O)cc1S(=O)(=O)O)C(C)(C)C=C3CS(=O)(=O)O [Compound 62],791^b nm,,,817^b nm,
CC1(C)c2c(cc3c4c2CCCN4CCC3)C(c2c(F)c(F)c(SCC(=O)O)c(F)c2F)=c2cc3c(cc21)=[N+](Cc1ccc(S(=O)(=O)O)cc1S(=O)(=O)O)CCC3 [Compound 36],656^b nm,,,677^b nm,
CN(C)c1ccc2c(c1)C(C)(C)C1=C/C(=[N+](/C)Cc3ccc(S(=O)(=O)O)cc3S(=O)(=O)O)C=CC1=C2c1c(F)c(F)c(F)c(F)c1F [Compound 37],642^b nm,,,661^b nm,
C[Si]1(C)c2cc3c(cc2C=c2cc4c(cc21)=[N+](Cc1ccc(S(=O)(=O)O)cc1S(=O)(=O)O)CCC4)CCCN3CCCC(=O)O [Compound 94],670^b nm,,,693^b nm,
CC1(C)CC(CS(=O)(=O)O)c2cc3c(cc2=[N+]1Cc1ccc(S(=O)(=O)O)cc1S(=O)(=O)O)Oc1cc(N)c2cc(S(=O)(=O)O)ccc2c1N=3 (stereo not shown) [Compound 101],647^b nm,,,678^b nm,
CC1(C)CC(CS(=O)(=O)O)c2cc3c(cc2=[N+]1CCCC(=O)O)Oc1cc2c(cc1N=3)CCCN2Cc1ccc(S(=O)(=O)O)cc1S(=O)(=O)O (stereo not shown) [Compound 98],664^b nm,,,682^b nm,
CC[N+]1=c2cc3c(cc2C(CS(=O)(=O)O)=CC1(C)C)=C(c1c(F)c(F)c(SCCS(=O)(=O)O)c(F)c1F)c1cc2c(cc1C3(C)C)N(Cc1ccc(S(=O)(=O)O)cc1S(=O)(=O)O)CCC2 [Compound 42],682^b nm,,,701^b nm,
CC[N+]1=c2cc3c(cc2C(CS(=O)(=O)O)=CC1(C)C)=C(c1n(C)cc[n+]1CCCCC(=O)O)c1cc2c(cc1C3(C)C)N(Cc1ccc(S(=O)(=O)O)cc1S(=O)(=O)O)C(C)(C)C=C2CS(=O)(=O)O [Compound 61],743^b nm,,,776^b nm,
CC1(C)c2cc3c(cc2C(NCC(S(=O)(=O)O)S(=O)(=O)O)=c2cc4c(cc21)=[N+](Cc1ccc(S(=O)(=O)O)cc1S(=O)(=O)O)C(C)(C)C=C4CS(=O)(=O)O)C(CS(=O)(=O)O)=CC(C)(C)N3CCCC(=O)O [Compound 86],502^b nm,,,660^b nm,
Cc1cc(=O)n(CC(=O)O)c2cc(NCc3ccc(S(=O)(=O)O)cc3S(=O)(=O)O)c(S(=O)(=O)O)cc12 [Compound 109],349^b nm,,,418^b nm,
CN(CCCC(=O)ON1C(=O)CCC1=O)C(=O)c1ccccc1-c1c2cc(S(=O)(=O)O)/c(=N/Cc3ccc(S(=O)(=O)O)cc3S(=O)(=O)O)cc-2oc2cc(NCc3ccc(S(=O)(=O)O)cc3S(=O)(=O)O)c(S(=O)(=O)O)cc12 [Compound 7],,,534^c nm,559^b nm,
CCN1c2cc3c(cc2C(CS(=O)(=O)O)=CC1(C)C)C(c1n(C)cc[n+]1CCCCS(=O)(=O)O)=c1cc2c(cc1C3(C)C)=[N+](Cc1ccc(S(=O)(=O)O)cc1S(=O)(=O)O)CCC2 [Compound 55],725^b nm,,,749^b nm,
O=C(O)c1ccccc1-c1c2cc/c(=N/CS(=O)(=O)O)c(S(=O)(=O)O)c-2oc2c(S(=O)(=O)O)c(NCS(=O)(=O)O)ccc12 [Compound 1],,,533^c nm,554^b nm,
CN(CCCC(=O)O)C(=O)c1ccccc1-c1c2cc(S(=O)(=O)O)/c(=N/CCc3ccc(S(=O)(=O)O)cc3)cc-2oc2cc(N)c(S(=O)(=O)O)cc12 [Compound 20],,,528^c nm,550^b nm,easily form a lactone or pseudobase
CCN(Cc1ccccc1S(=O)(=O)O)c1ccc2c(-c3ccccc3C(=O)O)c3cc/c(=[N+](\CC)Cc4ccccc4S(=O)(=O)O)cc-3oc2c1 [Compound 2],,,554^c nm,584^b nm,
CN(CCCC(=O)O)C(=O)c1ccccc1-c1c2cc/c(=N\c3ccc(S(=O)(=O)O)cc3)c(S(=O)(=O)O)c-2oc2c(S(=O)(=O)O)c(Nc3ccc(S(=O)(=O)O)cc3)ccc12 [Compound 17],,quenchers,555^c nm,,
Cn1cc[n+](CCCCS(=O)(=O)O)c1C1=c2cc3c(cc2C(C)(C)c2cc4c(cc21)C(CS(=O)(=O)O)=CC(C)(C)N4Cc1ccc(S(=O)(=O)O)cc1S(=O)(=O)O)=[N+](CCCC(=O)O)C(C)(C)C=C3CS(=O)(=O)O [Compound 60],742^b nm,,,775^b nm,
CN(C)c1ccc2c(c1)C(C)(C)c1cc3c(cc1=C2c1c(F)c(F)c(SCC(=O)O)c(F)c1F)C(CS(=O)(=O)O)CC(C)(C)[N+]=3Cc1ccc(S(=O)(=O)O)cc1S(=O)(=O)O (stereo not shown) [Compound 39],673^b nm,,,693^b nm,
